Results: PMC5150697 (ACS Medicinal Chemistry Letters, 2016)

How the values were obtained:
[1] = biological target: human serum albumin (HSA) (Homo sapiens, UniProt P02768); test: Equilibrium dialysis with HSA; assay type: in vitro ADME; conditions: 1 µM, 4% HSA, pH 7.4, 37 °C, 4 h, n = 3
human α1 AGP = test: Equilibrium dialysis with human α1 AGP; assay type: in vitro ADME; conditions: 1 µM, 0.1% AGP, pH 7.4, 37 °C, 4 h, n = 3
[2] = system: ABCA1 induction in human whole blood; test: Human whole blood assay; assay type: cell-based; conditions: for improvement in hWBA potency compared to 5: ratio of hWBA EC50 values vs 5
[3] = after multiple days of dosing, limited therapeutic window; cited from earlier work

human serum albumin (HSA), sequence (P02768 25-609): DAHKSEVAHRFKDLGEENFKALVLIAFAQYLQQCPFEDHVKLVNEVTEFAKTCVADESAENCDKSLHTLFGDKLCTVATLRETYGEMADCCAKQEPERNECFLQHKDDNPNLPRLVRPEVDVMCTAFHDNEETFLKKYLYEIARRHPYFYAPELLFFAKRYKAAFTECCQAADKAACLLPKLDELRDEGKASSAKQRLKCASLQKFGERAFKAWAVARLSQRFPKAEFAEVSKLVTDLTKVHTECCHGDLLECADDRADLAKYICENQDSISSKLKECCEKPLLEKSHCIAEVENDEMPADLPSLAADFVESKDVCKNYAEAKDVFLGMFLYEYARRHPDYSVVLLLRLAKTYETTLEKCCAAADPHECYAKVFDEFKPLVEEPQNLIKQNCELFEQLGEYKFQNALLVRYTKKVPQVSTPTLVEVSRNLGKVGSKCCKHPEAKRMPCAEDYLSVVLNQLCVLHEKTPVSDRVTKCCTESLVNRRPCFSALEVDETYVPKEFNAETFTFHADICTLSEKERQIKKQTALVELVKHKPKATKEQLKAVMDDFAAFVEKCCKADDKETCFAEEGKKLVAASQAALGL

Row | Compound | human α1 AGP (% bound) (human α1 AGP) [%] | improvement in hWBA potency compared to 5 [2] [fold] | further results
1 | CC(C)(O)c1cn(-c2ccc(-c3cccc(S(C)(=O)=O)c3)cc2)c(C(C)(C)c2ccccc2Cl)n1 [Example 5] | 99.9 ± 0.0 | – | HSA (% bound) [1]: 97.2 ± 0.3%
2 | CC(C)(O)c1cn(-c2ccc(-c3cccc(S(C)(=O)=O)c3)cc2)c(C(C)(C)c2c(Cl)cccc2Cl)n1 [Example 6] | 99.6 ± 0.2 | 3 | –
3 | CC(C)(O)c1cn(-c2ccc(-c3cc(F)c(CO)c(S(C)(=O)=O)c3)cc2)c(C(C)(C)c2ccccc2Cl)n1 [Example 10] | – | 20 | –
4 | CC(C)(O)c1cn(-c2ccc(-c3cc(F)c(CO)c(S(C)(=O)=O)c3)cc2)c(C(C)(C)c2c(Cl)cccc2Cl)n1 [Example 12] | – | – | improvement in hWBA potency ([2]; 2,6-dichloro analogue vs 10): 3–4 fold
5 | CC(C)(O)c1cn(-c2ccc(-c3cc(F)c(CO)c(S(C)(=O)=O)c3)cc2F)c(C(C)(C)c2c(Cl)cccc2Cl)n1 [Example 15] | – | – | TGs and LDL-C in human trials [3]: elevated
